Test results: ChEMBL document CHEMBL3045939, “Synthesis and evaluation of fused pyrimidine derivatives as anti-inflammatory, antiproliferative and antimicrobial agents” (Med Chem Res, 2012)
Converted amounts (≈) assume the structure as drawn.

Key:
Aspergillus flavus = test: Antimicrobial activity against Aspergillus flavus ATCC 15517 after 48 hr by broth micro dilution assay; assay type: functional; details: ATCC 15517, 48 h
Candida albicans = test: Antimicrobial activity against Candida albicans ATCC 24433 after 48 hr by broth micro dilution assay; assay type: functional; details: ATCC 24433, 48 h
Escherichia coli = test: Antimicrobial activity against Escherichia coli ATCC 25922 after 24 hr by broth micro dilution assay; assay type: functional; details: ATCC 25922, 24 h
Staphylococcus aureus = test: Antimicrobial activity against Staphylococcus aureus ATCC 25923 after 24 hr by broth micro dilution assay; assay type: functional; details: ATCC 25923, 24 h
Pseudomonas aeruginosa = test: Antimicrobial activity against Pseudomonas aeruginosa ATCC 27853 after 24 hr by broth micro dilution assay; assay type: functional; details: ATCC 27853, 24 h
HEp-2 = test: Cytotoxicity against Homo sapiens (human) Hep2 cells after 24 hr by MTT assay; assay type: functional, cell-based; details: HEp-2, 24 h
HeLa = test: Cytotoxicity against Homo sapiens (human) HeLa cells after 24 hr by MTT assay; assay type: functional, cell-based
[1] = Cytotoxicity against Homo sapiens (human) Chang cells after 24 hr by MTT assay; assay type: functional, cell-based
Rattus norvegicus [2] = test: Anti-inflammatory activity in Rattus norvegicus Wistar albino (rat) assessed as carrageenan-induced paw volume at 100 mg/kg, po administered 1 hr prior to carrageenan-challenge measured at 5 hr (reference value: 1.24 +/- 0.0754 mm3); assay type: functional
Rattus norvegicus [3] = test: Anti-inflammatory activity in Rattus norvegicus Wistar albino (rat) assessed as carrageenan-induced paw volume at 100 mg/kg, po administered 1 hr prior to carrageenan-challenge measured at 4 hr (reference value: 1.2825 +/- 0.0862 mm3); assay type: functional
Rattus norvegicus [4] = test: Anti-inflammatory activity in Rattus norvegicus Wistar albino (rat) assessed as carrageenan-induced paw volume at 100 mg/kg, po administered 1 hr prior to carrageenan-challenge measured at 3 hr (reference value: 1.225 +/- 0.0484 mm3); assay type: functional
Rattus norvegicus [5] = test: Anti-inflammatory activity in Rattus norvegicus Wistar albino (rat) assessed as carrageenan-induced paw volume at 100 mg/kg, po administered 1 hr prior to carrageenan-challenge measured at 2 hr (reference value: 1.4175 +/- 0.1931 mm3); assay type: functional
Rattus norvegicus [6] = test: Anti-inflammatory activity in Rattus norvegicus Wistar albino (rat) assessed as carrageenan-induced paw volume at 100 mg/kg, po administered 1 hr prior to carrageenan-challenge measured at 1 hr (reference value: 1.2075 +/- 0.0405 mm3); assay type: functional
Rattus norvegicus [7] = test: Anti-inflammatory activity in Rattus norvegicus Wistar albino (rat) assessed as inhibition of carrageenan-induced paw edema at 100 mg/kg, po administered 1 hr prior to carrageenan-challenge measured at 2 hr relative to control; assay type: functional

Row | Structure (SMILES) | MIC (Aspergillus flavus) [µg/mL] | MIC (Candida albicans) [µg/mL] | MIC (Escherichia coli) [µg/mL] | MIC (Staphylococcus aureus) [µg/mL] | MIC (Pseudomonas aeruginosa) [µg/mL] | IC50 (HEp-2) [µg/mL] | IC50 (HeLa) [µg/mL] | IC50 [1] [µg/mL] | Activity (Rattus norvegicus [2]) [mm3] | Activity (Rattus norvegicus [3]) [mm3] | Activity (Rattus norvegicus [4]) [mm3] | Activity (Rattus norvegicus [5]) [mm3] | Activity (Rattus norvegicus [6]) [mm3] | inhibition in vivo at 100 mg/kg (Rattus norvegicus [7]) [%]
1 | O=c1c2cc(Cl)ccc2nc(-c2ccccc2)n1-c1ccc(F)c(Cl)c1 | > 100 | > 100 | > 100 | > 100 | 100 (≈ 260 µM) | < 6.25 | < 25 | < 6.25 | 1.25 | 1.3075 | 1.17 | 1.3525 | 1.1875 | 
2 | O=c1c2cc(Cl)ccc2nc(-c2ccccc2)n1Cc1ccc(F)cc1 | 25 (≈ 68.5 µM) | 12.5 (≈ 34.3 µM) | 1.56 (≈ 4.28 µM) | 0.78 (≈ 2.14 µM) | 3.12 (≈ 8.55 µM) | 10.9 (≈ 29.8 µM) | 41.5 (≈ 114 µM) | 17.9 (≈ 49.2 µM) | 1.2875 | 1.24 | 1.135 | 1.285 | 1.1525 | 
3 | O=c1c2cc(Cl)ccc2nc(-c2ccccc2)n1-c1ccc(Cl)cc1 | > 100 | > 100 | 12.5 (≈ 34 µM) | 3.12 (≈ 8.5 µM) | 12.5 (≈ 34 µM) | < 25 | < 25 | 6.25 (≈ 17 µM) | 1.1825 | 1.1425 | 1.23 | 1.11 | 1.135 | 
4 | O=c1c2cc(Cl)ccc2nc(-c2ccccc2)n1-c1cccc(Cl)c1 | > 100 | > 100 | 6.25 (≈ 17 µM) | 3.12 (≈ 8.5 µM) | 25 (≈ 68.1 µM) | < 6.25 | < 25 | < 6.25 | 1.125 | 1.0575 | 1.06 | 1.0625 | 1.1325 | 86.8
